Measurements reported in BindingDB's records for doi:10.1021/jm970815r (Eisai, 1998).

Experiment: Inhibition of Phosphodiesterase 5 from porcine platelets

Going from `COc1ccc(CNc2nnc(Cl)c3ccc(C#N)cc23)cc1Cl` to `COc1ccc(CNc2nnc(Cl)c3cc(C#N)ccc23)cc1Cl` [4-Chloro-1-(3-chloro-4-methoxy-benzylamino)-phthalazine-6-carbonitrile], the IC50 rises from 4.8 nM to 140 nM (29-fold). The first is the more potent here.

Going from `CCOc1ccc(CNc2nnc(Cl)c3ccc(C#N)cc23)cc1Cl` [1-Chloro-4-(3-chloro-4-ethoxy-benzylamino)-phthalazine-6-carbonitrile] to `COc1ccc(CNc2nnc(Cl)c3ccc([N+](=O)[O-])cc23)cc1Cl` [(3-Chloro-4-methoxy-benzyl)-(4-chloro-7-nitro-phthalazin-1-yl)-amine], the IC50 falls from 49 nM to 3.5 nM (14-fold). The second is the more potent here.

Going from `COc1ccc(CNc2nnc(Cl)c3ccc(C#N)cc23)cc1` [1-Chloro-4-(4-methoxy-benzylamino)-phthalazine-6-carbonitrile] to `COc1ccc(CNc2nnc(Cl)c3cc(Cl)ccc23)cc1Cl` [(3-Chloro-4-methoxy-benzyl)-(4,6-dichloro-phthalazin-1-yl)-amine], the IC50 rises from 140 nM to 810 nM (5.8-fold). The first is the more potent here.

Going from `COc1ccc(CNc2nnc(Cl)c3ccc(C(F)(F)F)cc23)cc1Cl` [(3-Chloro-4-methoxy-benzyl)-(4-chloro-7-trifluoromethyl-phthalazin-1-yl)-amine] to `O=[N+]([O-])c1ccc2c(Cl)nnc(NCc3ccc4c(c3)OCO4)c2c1` [Benzo[1,3]dioxol-5-ylmethyl-(4-chloro-7-nitro-phthalazin-1-yl)-amine], the IC50 rises from 5.3 nM to 63 nM (12-fold). The first is the more potent here.
